# Experimental data reported in US20230014226A1, “NEW COMPOUNDS AND METHODS” (BenevolentAI Bio Limited, priority 2019, published 2023).
# System: murine Hb9-GFP+ motor neurons in co-culture with ALS patient iAstrocytes
# Test: Human iAstrocyte - murine Hb9-GFP+ motor neuron co-culture
# Format: cell-based, human iAstrocytes
# Source text: iNPCs (induced Neuronal Progenitor Cells) were derived from ALS patient fibroblasts as described previously (Meyer et al. 20148). iNPCs were differentiated into iAstrocytes by culturing in iAsrocyte media for at least 5 days. Murine motor neurons expressing the green fluorescent protein (GFP) under the Hb9 motor neuron-specific promoter (called from now on Hb9-GFP+) were differentiated from murine embryonic stem cells via embryoid bodies (EBs), as previously described (Haidet-Phillips et al. 20119, Wichterle et al. 200210).
# iNPCs and mESC were split into iAstrocyte media and mEB media respectively on the same day, such that iAstrocytes and motor neurons will have both differentiated for 7 days when seeded together in co-culture.
# Changed media on iAstrocytes, and split using accutase if 90-100% confluent 3 days after seeding from iNPCs. iAstrocytes were left a further 2 days in iAstrocyte media until seeded onto 384-well plates.
# Diluted fibronection 1:400 in PBS, and 5 μL added per well. The plate was incubated with fibronectin at room temp for at least 5 mins.
# The media was removed from iAstrocytes, and washed in PBS. 1 mL accutase per 10 cm plate was added, and incubated at 37° C. for 4 mins. The plate was tapped to dislodge any remaining iAstrocytes. The iAstrocytes were resuspended in iAstro media, and centrifuged at 200×g for 4 mins. The supernatant was removed, the falcon was flicked to vortex the cells, and resuspended the cells in an appropriate amount of iAstrocyte media. Counted cells using the haemocytometer, and diluted cells to an appropriate dilution for seeding. Seeded 1-2,000 iAstrocytes in 35 μL media on fibronectin-coated 384-well plates. Centrifuged 384-well plates at 1,760×rpm for 60 s using a PK120 (ALC) centrifuged (in neurogenetics) to collect media and cells to base of wells. Plates were left for 24 h for iAstrocytes to adhere to plate.
# Drugs were delivered in 100% drug-grade DMSO to iAstrocyte media using an Echo550 liquid handler (Labcyte). 384-well plates were centrifuged at 1,760×rpm for 60 s using a PK120 (ALC) centrifuge.
# 2 plates of EBs were collected in a 50 mL tube and centrifuged for 4 mins at 200×g. The supernatant was removed from EBs after centrifugation, and washed in 10 mL PBS then centrifuged again for 4 mins at 200×g, and PBS wash removed.
# For each 50 mL tube, 2.75 mL EB dissociation buffer was added and then 250 μL 200 U/mL (10×) Papain. The solution was gently pipetted up and down 10 times, using a P1000 pipette, against the side of the falcon (EB pellet was not pipetted directly). 50 mL tube was put in 37° C. water bath and incubated for 5 mins. Tube removed every 3 mins and gently shaken. After 5 mins, additional 2 mL of EB dissociation and 100 μL 200 U/mL (10×) Papain were added, which was then pipette again 5 times with P1000 pipette, and returned to the water bath for another 5 mins. It was returned to water bath as before, and incubated for no longer than 15-20 mins.
# Centrifuged for 5 mins at 300×g. Each 50 mL tube, 2.7 mL EB dissociation was prepared, to which 300 μL FBS and 150 μL 0.5 mg/mL DNaseI was added. The supernatant was removed from dissociated EBs and 3 mL of the FBS/DNaseI mix was added, pipetted up and down with P1000 pipette about 5 times. 5 mL FBS was added very slowly to the bottom of the falcon containing the dissociated EBs. The supernatant was removed and the cells very gently resuspended in about 3 mL MN media (more used if the pellet is large) and filtered through a 40 μm filter. 1 mL extra MN media was added to wash the filter.
# 2,500 murine Hb9-GFP+ motor neurons were seeded per well in 10 μL motor neuron media on top of the pre-treated iAstrocytes. 384-well plates were centrifuged at 1,760×rpm for 60 s using a PK120 (ALC) centrifuge.
# Day8 15 μL motor neuron media were added per well. Hb9-GFP+ motor neurons were imaged using an INCELL analyser 2000 (GE Healthcare)—day 1 of co-culture. […]
structure (smiles),measurement,setting,value
"Cc1ccc(C(=O)Nc2cn(C(C)C)cn2)cc1C#Cc1cccnc1 [Example 25, N-(1-isopropylimidazol-4-yl)-4-methyl-3-[2-(3-pyridyl)ethynyl]benzamide]",rescue of motor neuron survival in co-culture with patient-derived iAstrocytes (FIG. 3),"72 hours co-culture, dose dependant, maximum responses close to positive control (1 μM Nilotinib)",rescue motor neuron survival
same,efficacy at very high concentrations (motor neuron survival),potentially due to compound toxicity,reduction in efficacy at very high concentrations
